“Also recorded” adds a separate entry of the source.
Columns and labels:
[1] = test system: convulsions caused by pentylene tetrazole; test: Protection against convulsions caused by pentylene tetrazole (PTZ) in adult female Wistar rats after oral administration; assay type: in vivo, rat (Wistar; design: key to Chi2 difference between the doses (100 and 200 mgr/kg) / Chi2 difference between the times: NS: not significant; conditions: for Chi2 difference between the doses (100 and 200 mgr/kg): 100 vs 200 mgr/kg; for Chi2 difference between the times: 1 hour vs 2 hours + 4 hours; for Chi2 difference between the times / Chi2 difference between DPH and deuterated DPH: * P < 0.05, ** P < 0.01; for Anticonvulsive activity compared with DPH: in comparison with diphenylhydantoin; for Protection of rats against the convulsive effect of PTZ (number of protected animals / total number of animals): PTZ 100 mgr/kg intraperitoneally
Experimental: The active substances according to the invention were tested in order to examine their activity and their effects in comparison with known diphenylhydantoin (DPH). In these tests as follows, 5-(paradeuterophenyl)-5-phenylhydantoin will be designated by DPH-d1 and 5-phenyl-d5 -5-phenylhydantoin by DPH-d5.
To examine the anticonvulsive activity of these substances, they were subjected to testing as to protection against convulsions caused by pentylene tetrazole on adult female rat (Wistar strain: 200-220 gr). One, two or four hours after oral administration of hydantoins (100 and 200 mgr/kg: solution in dimethyl sulfoxide/propylene glycol), animals have received a dose of 100 mgr/kg of pentylene tetrazole (PTZ) intraperitonally, then they were maintained under observation for 1 hour. The absence of appearance of convulsions was considered as a positive response. The results are expressed in the following table I as the ratio between the number of protected animals and the total number of animals.
The research of significant differences has been made on the following aspects: between DPH and deuterated DPH at 1 hour at doses of 100 and 200 mgr/kg, between DPH and deuterated DPH at any time and at a dose of 100 mgr/kg, between doses of 100 and 200 mgr/kg and between the times.

[2] = Repartition in tissues (brain/blood ratio) after oral administration, rats, titration by gaseous chromatography; assay type: in vivo; conditions: female rat ± 200 gr, oral 100 mg/kg; for Kp at 1 h: after 1 hour; for Kp at 2 h: after 2 hours
Excerpt: (§1) The contents of the various tissues in DPH, DPH-d1 and DPH-d5 have been determined at two times after oral administration (male mice, female rats, titration by gaseous chromatography).
(§2) The whole results are mentioned in the following table III. The indicated values represent the ratio of active substance concentrations in the brain and blood. After oral administration, these values as well in rat as in mouse show a trend, which is marked to very marked, to be higher for deuterated DPH than for DPH itself.

[3] = Repartition in tissues (brain/blood ratio) after oral administration, mice, titration by gaseous chromatography; assay type: in vivo; conditions: mouse, 100 mg/kg, male mice 20-25gr, oral 100 mgr/kg; for Kp at 2 h: after 2 hours; for Kp at 24 h: after 24 hours
Excerpt: as §1, §2

[4] = Accumulation in the cerebral tissue (general statement); assay type: in vivo; conditions: in comparison with diphenylhydantoin
Excerpt: as §1, §2

Row | Compound | Chi2 difference between the doses (100 and 200 mgr/kg) [1] | Chi2 difference between the times [1] | Chi2 difference between DPH and deuterated DPH ([1]; at 1 hour, 100 mgr/kg) | Chi2 difference between DPH and deuterated DPH ([1]; at 1 hour, 200 mgr/kg) | Chi2 difference between DPH and deuterated DPH ([1]; at any time, 100 mgr/kg) | Anticonvulsive activity compared with DPH [1] | Protection of rats against the convulsive effect of PTZ (number of protected animals / total number of animals) ([1]; oral 100 mgr/kg, 1 hour) | Protection of rats against the convulsive effect of PTZ (number of protected animals / total number of animals) ([1]; oral 100 mgr/kg, 2 hours) | Protection of rats against the convulsive effect of PTZ (number of protected animals / total number of animals) ([1]; oral 100 mgr/kg, 4 hours) | Protection of rats against the convulsive effect of PTZ (number of protected animals / total number of animals) ([1]; oral 200 mgr/kg, 1 hour) | Kp at 1 h [2] | Kp at 2 h [2] | Kp at 2 h [3] | Kp at 24 h [3] | Anticonvulsive activity compared with DPH ([1]; listed as (R,S)-5-phenyl-d5 -5-phenylhydantoin) | Accumulation in the cerebral tissue [4]
1 | [2H]c1ccc(C2(c3ccccc3)NC(=O)NC2=O)cc1 (stereo not shown) [DPH-d1, 5-(paradeuterophenyl)-5-phenylhydantoin] | NS | 3.93 | 9.42 | 4.36 | 9.40 | better protects the animals against the convulsive effect of PTZ than DPH; also recorded: higher anticonvulsive activity | 9/14 | 4/10 | 2/10 | 11/30 | 2.1 ± 0.41 | 15.5 ± 3.7 |  |  |  | 
2 | O=C1NC(=O)C(c2ccccc2)(c2ccccc2)N1 [DPH, 5,5-diphenylhydantoin, reference compound] | NS | NS |  |  |  |  | 4/25 | 2/10 | 0/10 | 5/35 | 0.9 ± 0.13 | 5.91 ± 0.93 | 1.45 ± 0.1 | 2.09 ± 0.22 |  | 
3 | [2H]c1c([2H])c([2H])c(C2(c3ccccc3)NC(=O)NC2=O)c([2H])c1[2H] (stereo not shown) [DPH-d5, 5-phenyl-d5-5-phenylhydantoin] | NS | 3.58 | 2.17 | 2.92 | 1.22 | A difference in the same direction, close to the significance limit; also recorded: higher anticonvulsive activity | 7/20 | 2/10 | 0/10 | 11/35 | 2.15 ± 0.37 | 4.49 ± 1.33 | 2.35 ± 0.26 | 2.97 ± 0.3 | higher anticonvulsive activity than diphenylhydantoin | accumulation in the cerebral tissue more favorably
4 | [2H]c1c([2H])c([2H])c(C2(c3c([2H])c([2H])c([2H])c([2H])c3[2H])NC(=O)NC2=O)c([2H])c1[2H] [5,5-di-(phenyl-d5)-hydantoin] |  |  |  |  |  | higher anticonvulsive activity than diphenylhydantoin |  |  |  |  |  |  |  |  |  | accumulation in the cerebral tissue more favorably

From patent US4304782A, “Psychotropic deuterated derivatives of phenylhydantoin and pharmaceutical compositions comprising such derivatives” (Region Wallonne, priority 1979, dated 1981)
